Key:
WIL-FL* [1] = assay: FP artefact counterscreen (compounds added after 24 h of proteinase K treatment); format: biochemical, human; parameters: concentration or dose not given beside the values; conditions: compound added after 24 h PK treatment; mean ± sd, n=3
Method: Secondly, to remove compounds that interfere with the FP measurement, the primary screen was repeated in triplicate but compounds were added after 24 h of proteinase K treatment (FIG. 1f). […] Bona fide hits should retain no FP beyond the low control.

WIL-FL [2] = molecular target: T1, WIL-FL (Homo sapiens, UniProt P01721); assay: Kinetic unfolding in urea; format: biochemical; conditions: 5 at 50 μM, WIL-FL 5 μM; 3.57 s^−1 for WIL-FL alone
Method: Kinetic unfolding. WIL-FL (5 μM) in 50 mM sodium phosphate buffer, pH 7.0, containing 50 μM 5 was rapidly diluted into urea in 50 mM sodium phosphate buffer and 50 μM 5 using an APP SX-20 stopped flow fluorimeter at 37° C. The change in fluorescence emission >335 nm was measured as a function of time (λex=280 nm). […] Kinetic transients were fitted to single exponential curves and rates extracted.

WIL-FL [3] = molecular target: T1, WIL-FL; assay: Equilibrium unfolding, urea titration; format: biochemical; conditions: 1 at 100 μM or 5 at 50 μM, WIL-FL 5 μM; 1.4 M without ligand
Method: Equilibrium unfolding. WIL-FL (5 μM) was titrated against urea in 50 mM sodium phosphate buffer, pH 7.0, containing 50 μM 5 or 100 μM 1. After incubation overnight at 25° C., intrinsic tryptophan fluorescence emission spectra were measured using a Jasco 8600 fluorimeter (μex=280 nm, μem=300-420 nm). Average wavelength (also known as center of spectral mass) values were calculated using the equation: […]
λi and Ii are the are the wavelength and intensity at i, respectively. Average wavelength data were normalized for comparison. […] Midpoint urea concentrations were calculated by fitting the titration data to a 2-state unfolding equation: […]
x is the urea concentration (M), G is the free energy of unfolding (kJ mol^−1), m is the denaturant dependence of the unfolding reaction (kJ mol^−1 M^−1), R is the ideal gas constant, T is the temperature in K, a and c are the fluorescence of the folded and unfolded states, and b and d are the denaturant dependence of the fluorescence of the folded and unfolded states, respectively.

WIL-FL* [4] = molecular target: T2, WIL-FL* (Homo sapiens, UniProt P01721, K101C, form not given); assay: PCFP assay with thermolysin; conditions: mean ± sd, n=3; 6.75 μM compound
WIL-FL* [5] = molecular target: T2, WIL-FL*; assay: Protease-coupled fluorescence polarization (PCFP) assay with proteinase K; conditions: for EC50: from dose response curves measured during the screening process; for PK activity (%): secondary screen, mean ± sd, n=3, 6.75 μM compound, FP retention after 24 h at 22° C., normalized to high and low controls
WIL-FL [6] = molecular target: T1, WIL-FL; assay: PK proteolysis of unlabeled WIL-FL by SDS-PAGE; conditions: WIL-FL 10 μM, small molecule 100 μM, t=2 h
Method: The experiment in FIG. 1b measured simultaneous proteolysis of labeled and unlabeled LC by adding 20 nM WIL-FL* or JTO-FL* to 5 μM WIL-FL or JTO-FL, respectively. Fluorescein fluorescence images of the SDS-PAGE gels were recorded, after which the gels were Coomassie stained and imaged.

| SMILES | Counterscreen activity (%) (WIL-FL* [1]) | unfolding rate constant (extrapolated to the absence of denaturant) (WIL-FL [2]) [s⁻¹] | midpoint concentration of urea required to unfold the FL LC (WIL-FL [3]) [M] | Thermolysin activity (%) (WIL-FL* [4]) | EC50 (WIL-FL* [5]) [µM] | PK activity (%) (WIL-FL* [5]) | protection of WIL-FL against PK proteolysis (WIL-FL [6]) |
| --- | --- | --- | --- | --- | --- | --- | --- |
| Cc1cc(O)nc(N/N=C/C=C/c2ccccc2[N+](=O)[O-])n1 [Compound 5] | 8.04 ± 2.6 | 2.43 | 2.0 | 61.1 ± 5.0 | 5.51 | 65.2 ± 2.8 |  |
| Cc1cc(=O)oc2cc(OC(C)c3ccccc3)ccc12 (stereo not shown) [Compound 3] | −2.52 ± 5.8 |  |  | 38.7 ± 3.7 |  | 43.3 ± 1.5 |  |
| CC(Oc1ccc(/C=C(\C#N)C(N)=O)cc1)c1ccccc1 (stereo not shown) [Compound 4] | −7.4 ± 4.0 |  |  | 40.4 ± 1.2 | 6.33 | 48.9 ± 2.6 |  |
| CCN(CC)c1ccc2ccc(=O)oc2c1 [Compound 9] | −3.45 ± 3.89 |  |  | 27.1 ± 1.3 | 7.9 | 37.9 ± 1.1 | stabilizes WIL-FL, but is less efficacious than 1 |
| CC(C)CC1NC(=O)N(CC(=O)Nc2ccc(C(F)(F)F)cc2)C1=O (racemic) [Compound 8] | −2.05 ± 2.9 |  |  | 50.8 ± 1.7 | 7.36 | 48.0 ± 2.4 |  |
| CC1CCCCC12NC(=O)N(CC(=O)Nc1ccc(C(F)(F)F)cc1)C2=O (stereo not shown) [Compound 7] | 2.51 ± 4.7 |  |  | 26.3 ± 1.7 | 5.87 | 29.3 ± 2.5 |  |
| CCOC(=O)Cc1c(C)c2ccc(N(CC)CC)cc2oc1=O [Compound 2] | −4.13 ± 5.2 |  |  | 33.8 ± 3.1 | 6.92 | 37.8 ± 1.4 |  |

Second part, led by results:

| Counterscreen activity (%) (WIL-FL* [1]) | unfolding rate constant (extrapolated to the absence of denaturant) (WIL-FL [2]) [s⁻¹] | midpoint concentration of urea required to unfold the FL LC (WIL-FL [3]) [M] | Thermolysin activity (%) (WIL-FL* [4]) | EC50 (WIL-FL* [5]) [µM] | PK activity (%) (WIL-FL* [5]) | SMILES | protection of WIL-FL against PK proteolysis (WIL-FL [6]) |
| --- | --- | --- | --- | --- | --- | --- | --- |
| 0.41 ± 2.5 |  |  | 30.2 ± 4.2 | 11.3 | 37.2 ± 7.3 | CCN(CC)c1ccc2c(C)c(CN3CCOCC3)c(=O)oc2c1 [Compound 12] |  |
| −1.54 ± 2.4 |  |  | 55.5 ± 3.3 | 4 | 48.0 ± 3.8 | CCN(CC)c1ccc2c(C)c(Cl)c(=O)oc2c1 [Compound 10] |  |
| 1.67 ± 4.7 |  |  | 34.8 ± 3.1 | 9.04 | 41.9 ± 3.0 | CCN(CC)c1ccc2c(C)c(CC(C)=O)c(=O)oc2c1 [Compound 14] |  |
| −3.09 ± 3.0 |  |  | 29.1 ± 0.3 | 6.73 | 50.5 ± 5.3 | CN(C)c1ccc(C2OCC(Cl)([N+](=O)O)CO2)cc1 (stereo not shown) [Compound 16] |  |
| −4.35 ± 5.6 |  |  | 18.3 ± 4.9 | 9.28 | 34.2 ± 3.0 | CC(Oc1ccc2ccc(=O)oc2c1)c1ccccc1 (stereo not shown) [Compound 15] |  |
| −4.10 ± 1.5 |  |  | 23.3 ± 8.5 | 9.15 | 4.21 ± 4.4 | CCN(CC)c1ccc2c(CN3CCOCC3)cc(=O)oc2c1 [Compound 13] |  |
| 0.94 ± 3.9 |  |  | 45.7 ± 7.0 | 4.18 | 58.7 ± 2.0 | CCN(CC)c1ccc2c(C)c(I)c(=O)oc2c1 [Compound 11] |  |

Reference: patent publication US11945806B2, “Stabilization of amyloidogenic immunoglobulin light chains” (The Scripps Research Institute, priority 2019, dated 2024)
